# What was measured:
# wild oat = experiment: Test B preemergence/postemergence greenhouse plant response rating 0 to 10; assay type: in vivo, Avena fatua; conditions: 0 to 10 scale
# Summary of the method: (§1)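 Test chemicals were sprayed onto freshly planted seed and, concurrently, onto young plants between the one and four leaf stage. After a twelve- to sixteen-day greenhouse period, each species was visually compared with untreated controls.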
# crabgrass = experiment: as above; assay type: in vivo, Digitaria spp.; conditions: 0 to 10 scale
# Summary of the method: as §1
# morningglory [1] = experiment: as above; assay type: in vivo, Ipomoea hederacea; conditions: 0 to 10 scale
# Summary of the method: as §1
# soybean [2] = experiment: Test C preemergence/postemergence greenhouse plant response rating 0 to 100; assay type: in vivo, Glycine max; conditions: POSTEMERGENCE; for Plant response rating, Soybean: 0 to 100 scale
# Summary of the method: (§2)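 Compounds in non-phytotoxic solvent went onto sandy loam before emergence (seeded one day earlier) or onto plants at the one-to-four leaf stage. Duck salad was treated via flood water (~2.5 cm, maintained) over silt loam.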
# rape = experiment: Test B preemergence/postemergence greenhouse plant response rating 0 to 10; assay type: in vivo, Brassica napus; conditions: 0 to 10 scale
# Summary of the method: as §1
# sorghum = experiment: as above; assay type: in vivo, Sorghum bicolor; conditions: 0 to 10 scale
# Summary of the method: as §1
# downy brome = experiment: Test C preemergence/postemergence greenhouse plant response rating 0 to 100; assay type: in vivo, Bromus tectorum; conditions: POSTEMERGENCE; for Plant response rating Downy Brome: 0 to 100 scale
# Summary of the method: as §2
# chickweed [3] = experiment: as above; assay type: in vivo, Stellaria media; conditions: POSTEMERGENCE; for Plant response rating, Chickweed: 0 to 100 scale
# Summary of the method: as §2
# soybean [4] = experiment: Test B preemergence/postemergence greenhouse plant response rating 0 to 10; assay type: in vivo, Glycine max; conditions: 0 to 10 scale
# Summary of the method: as §1
# corn = experiment: as above; assay type: in vivo, Zea mays; conditions: 0 to 10 scale
# Summary of the method: as §1
# barley = experiment: Test C preemergence/postemergence greenhouse plant response rating 0 to 100; assay type: in vivo, Hordeum vulgare; conditions: POSTEMERGENCE; for Plant response rating Barley Igri: 0 to 100 scale
# Summary of the method: as §2
# bedstraw = experiment: as above; assay type: in vivo, Galium aparine; conditions: POSTEMERGENCE; for Plant response rating, Bedstraw: 0 to 100 scale
# Summary of the method: as §2
# wild buckwheat = experiment: as above; assay type: in vivo, Polygonum convolvulus; conditions: POSTEMERGENCE; for Plant response rating, Wild buckwheat: 0 to 100 scale
# Summary of the method: as §2
# chickweed [5] = experiment: Test B preemergence/postemergence greenhouse plant response rating 0 to 10; assay type: in vivo, Stellaria media; conditions: 0 to 10 scale
# Summary of the method: as §1
# morningglory [6] = experiment: Test C preemergence/postemergence greenhouse plant response rating 0 to 100; assay type: in vivo, Ipomoea hederacea; conditions: POSTEMERGENCE; for Plant response rating, Morningglory: 0 to 100 scale
# Summary of the method: as §2
# purple nutsedge = experiment: Test B preemergence/postemergence greenhouse plant response rating 0 to 10; assay type: in vivo, Cyperus rotundus; conditions: 0 to 10 scale
# Summary of the method: as §1
# umbrella sedge = experiment: Test C flood test plant response rating 0 to 100; assay type: in vivo, Cyperus difformis; conditions: for Plant response rating (0 to 100), Umbrella sedge: under POSTEMERGENCE head (flood test species); for Plant response rating Umbrella sedge: flood test species listed under POSTEMERGENCE, 0 to 100 scale
# Summary of the method: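 Compounds in non-phytotoxic solvent applied preemergence to sandy loam one day after planting, postemergence at the 1–4 leaf stage, or to ~2.5 cm floodwater over silt loam.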
# wheat = experiment: Test B preemergence/postemergence greenhouse plant response rating 0 to 10; assay type: in vivo, Triticum aestivum; conditions: 0 to 10 scale
# Summary of the method: as §1
structure (smiles),measurement,setting,value
CCOC(=O)COc1cc(-c2nn3c(c2Cl)CCCC3)c(F)cc1Cl [Compound 42],"Plant response rating, Wild oat","wild oat; POSTEMERGENCE, Rate 50 g/ha",1
same,"Plant response rating, Wild oat","wild oat; PREEMERGENCE, Rate 50 g/ha",0
same,"Plant response rating, Wild oat","wild oat; Rate 200 g/ha, POSTEMERGENCE",3
same,"Plant response rating, Crabgrass","crabgrass; POSTEMERGENCE, Rate 50 g/ha",2
same,"Plant response rating, Crabgrass","crabgrass; POSTEMERGENCE, Rate 200 g/ha",3
same,"Plant response rating, Crabgrass","crabgrass; PREEMERGENCE, Rate 50 g/ha",0
same,"Plant response rating, Crabgrass","crabgrass; Rate 200 g/ha, PREEMERGENCE",0
same,"Plant response rating, Morningglory","morningglory [1]; POSTEMERGENCE, Rate 50 g/ha",9
same,"Plant response rating, Morningglory","morningglory [1]; PREEMERGENCE, Rate 50 g/ha",0
same,"Plant response rating, Morningglory","morningglory [1]; Rate 200 g/ha, POSTEMERGENCE",10
same,"Plant response rating, Morningglory","morningglory [1]; Rate 200 g/ha, PREEMERGENCE",3
same,"Plant response rating, Soybean",soybean [2]; 62 g/ha,60
same,"Plant response rating, Soybean",soybean [2]; 125 g/ha,80
same,"Plant response rating (0 to 100), Soybean",soybean [2]; Rate 16 g/ha,20
same,"Plant response rating (0 to 100), Soybean",soybean [2]; Rate 31 g/ha,40
same,"Plant response rating, Rape","rape; POSTEMERGENCE, Rate 50 g/ha",9
same,"Plant response rating, Rape","rape; PREEMERGENCE, Rate 50 g/ha",2
same,"Plant response rating, Rape","rape; Rate 200 g/ha, POSTEMERGENCE",10
same,"Plant response rating, Rape","rape; Rate 200 g/ha, PREEMERGENCE",3
same,"Plant response rating, Sorghum","sorghum; POSTEMERGENCE, Rate 50 g/ha",4
same,"Plant response rating, Sorghum","sorghum; PREEMERGENCE, Rate 50 g/ha",0
same,"Plant response rating, Sorghum","sorghum; Rate 200 g/ha, POSTEMERGENCE",5
same,"Plant response rating, Sorghum","sorghum; Rate 200 g/ha, PREEMERGENCE",0
same,Plant response rating Downy Brome,downy brome; 62 g/ha,30
same,Plant response rating Downy Brome,downy brome; 125 g/ha,50
same,"Plant response rating (0 to 100), Downy Brome",downy brome; Rate 16 g/ha,20
same,"Plant response rating (0 to 100), Downy Brome",downy brome; Rate 31 g/ha,30
same,"Plant response rating, Chickweed",chickweed [3]; 62 g/ha,50
same,"Plant response rating, Chickweed",chickweed [3]; 125 g/ha,60
same,"Plant response rating (0 to 100), Chickweed",chickweed [3]; Rate 16 g/ha,20
same,"Plant response rating (0 to 100), Chickweed",chickweed [3]; Rate 31 g/ha,40
same,"Plant response rating, Soybean","soybean [4]; POSTEMERGENCE, Rate 50 g/ha",4
same,"Plant response rating, Soybean","soybean [4]; PREEMERGENCE, Rate 50 g/ha",0
same,"Plant response rating, Soybean","soybean [4]; Rate 200 g/ha, POSTEMERGENCE",5
same,"Plant response rating, Soybean","soybean [4]; Rate 200 g/ha, PREEMERGENCE",0
same,"Plant response rating, Corn","corn; POSTEMERGENCE, Rate 50 g/ha",7
same,"Plant response rating, Corn","corn; POSTEMERGENCE, Rate 200 g/ha",9
same,"Plant response rating, Corn","corn; PREEMERGENCE, Rate 50 g/ha",0
same,"Plant response rating, Corn","corn; Rate 200 g/ha, PREEMERGENCE",0
same,Plant response rating Barley Igri,barley; 62 g/ha,30
same,Plant response rating Barley Igri,barley; 125 g/ha,40
same,"Plant response rating (0 to 100), Barley Igri",barley; Rate 16 g/ha,20
same,"Plant response rating (0 to 100), Barley Igri",barley; Rate 31 g/ha,30
same,"Plant response rating, Bedstraw",bedstraw; 62 g/ha,100
same,"Plant response rating, Bedstraw",bedstraw; 125 g/ha,100
same,"Plant response rating (0 to 100), Bedstraw",bedstraw; Rate 16 g/ha,80
same,"Plant response rating (0 to 100), Bedstraw",bedstraw; Rate 31 g/ha,90
same,"Plant response rating, Wild buckwheat",wild buckwheat; 62 g/ha,100
same,"Plant response rating, Wild buckwheat",wild buckwheat; 125 g/ha,100
same,"Plant response rating (0 to 100), Wild buckwheat",wild buckwheat; Rate 16 g/ha,60
same,"Plant response rating (0 to 100), Wild buckwheat",wild buckwheat; Rate 31 g/ha,70
same,"Plant response rating, Chickweed","chickweed [5]; POSTEMERGENCE, Rate 50 g/ha",4
same,"Plant response rating, Chickweed","chickweed [5]; POSTEMERGENCE, Rate 200 g/ha",8
same,"Plant response rating, Chickweed","chickweed [5]; PREEMERGENCE, Rate 50 g/ha",0
same,"Plant response rating, Chickweed","chickweed [5]; Rate 200 g/ha, PREEMERGENCE",0
same,"Plant response rating, Morningglory",morningglory [6]; 62 g/ha,100
same,"Plant response rating, Morningglory",morningglory [6]; 125 g/ha,100
same,"Plant response rating (0 to 100), Morningglory",morningglory [6]; Rate 16 g/ha,90
same,"Plant response rating (0 to 100), Morningglory",morningglory [6]; Rate 31 g/ha,95
same,"Plant response rating, Nutsedge","purple nutsedge; POSTEMERGENCE, Rate 50 g/ha",2
same,"Plant response rating, Nutsedge","purple nutsedge; PREEMERGENCE, Rate 50 g/ha",0
same,"Plant response rating, Nutsedge","purple nutsedge; Rate 200 g/ha, POSTEMERGENCE",5
same,"Plant response rating, Nutsedge","purple nutsedge; Rate 200 g/ha, PREEMERGENCE",0
same,"Plant response rating (0 to 100), Umbrella sedge",umbrella sedge; Rate 16 g/ha,0
same,"Plant response rating (0 to 100), Umbrella sedge",umbrella sedge; Rate 31 g/ha,10
same,Plant response rating Umbrella sedge,umbrella sedge; 62 g/ha,70
same,Plant response rating Umbrella sedge,umbrella sedge; 125 g/ha,90
same,"Plant response rating, Wheat","wheat; POSTEMERGENCE, Rate 50 g/ha",2
same,"Plant response rating, Wheat","wheat; PREEMERGENCE, Rate 50 g/ha",0
same,"Plant response rating, Wheat","wheat; Rate 200 g/ha, POSTEMERGENCE",5
same,"Plant response rating, Wheat","wheat; Rate 200 g/ha, PREEMERGENCE",0
